This note sets out measurements from ChEMBL document CHEMBL1150480, “Photoreactive CMP-sialic acids as substrates for 2,6-sialyltransferase” (Bioorg Med Chem Lett, 1995).

Series [1] is described as follows: Evaluation of ratio of Michaelis-Menten constant to that of kinetic constant against 2,6-sialyltransferase in presence of compound.
The target of series [2] is T1, Beta-galactoside alpha-2,6-sialyltransferase 1 (Rattus norvegicus) (UniProt P13721).
T1 sequence (whole entry): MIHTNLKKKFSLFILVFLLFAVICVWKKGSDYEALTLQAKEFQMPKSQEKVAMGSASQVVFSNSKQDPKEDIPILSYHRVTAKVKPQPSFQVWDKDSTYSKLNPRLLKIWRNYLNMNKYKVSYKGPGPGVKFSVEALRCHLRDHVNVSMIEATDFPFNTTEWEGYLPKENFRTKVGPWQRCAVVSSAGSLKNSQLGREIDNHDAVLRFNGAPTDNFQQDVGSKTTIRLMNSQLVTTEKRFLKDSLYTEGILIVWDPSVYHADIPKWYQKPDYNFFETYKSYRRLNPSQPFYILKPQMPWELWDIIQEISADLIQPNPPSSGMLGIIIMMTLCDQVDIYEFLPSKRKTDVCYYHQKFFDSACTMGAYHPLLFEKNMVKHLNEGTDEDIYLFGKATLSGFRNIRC
Put plainly: Evaluation of kinetic constant for rat liver GaI-beta-1,4GIcNAc alpha2,6-sialyltransferase in presence of compound.

Compound in series [3]: CC(=O)NC1C(O)CC(OP(=O)(O)OC[C@H]2OC(n3ccc(N)nc3=O)[C@H](O)[C@@H]2O)(C(=O)O)OC1[C@H](O)[C@H](O)CNC(=O)c1ccc(N=[N+]=[N-])cc1O
Put plainly: (§1) Evaluation of Michaelis-Menten constant of rat liver GaI-beta-1,4GIcNAc alpha2,6-sialyltransferase in presence of compound.

Compound in series [4]: CC(=O)NC1C(O)CC(OP(=O)(O)OC[C@H]2OC(n3ccc(N)nc3=O)[C@H](O)[C@@H]2O)(C(=O)O)OC1[C@H](O)[C@H](O)CNC(=O)c1ccc(N=[N+]=[N-])cc1
The series is described as §1.

Compound in series [5]: NCC(=O)NC1C(O)CC(OP(=O)(O)OC[C@H]2OC(n3ccc(N)nc3=O)[C@H](O)[C@@H]2O)(C(=O)O)OC1[C@H](O)C(O)CO
Described as §1.

Compound in series [6]: CC(=O)NC1C(O)CC(OP(=O)(O)OC[C@H]2OC(n3ccc(N)nc3=O)[C@H](O)[C@@H]2O)(C(=O)O)OC1[C@H](O)[C@H](O)CNC(=O)c1ccc(C(=O)c2ccccc2)cc1
The description is as §1.

Compound in series [7]: [N-]=[N+]=Nc1ccc(C(=O)NCC(=O)NC2C(O)CC(OP(=O)(O)OC[C@H]3OC(n4ccc(N)nc4=O)[C@H](O)[C@@H]3O)(C(=O)O)OC2[C@H](O)[C@H](O)CO)cc1
The series is described as §1.

For the molecule `[N-]=[N+]=Nc1ccc(C(=O)NCC(=O)NC2C(O)CC(OP(=O)(O)OC[C@H]3OC(n4ccc(N)nc4=O)[C@H](O)[C@@H]3O)(C(=O)O)OC2[C@H](O)[C@H](O)CO)cc1` (stereo not given in full), in series [1], the Ratio was 3.1. In addition, the Relative Vmax in series [2] was 0.5.
For `CC(=O)NC1C(O)CC(OP(=O)(O)OC[C@H]2OC(n3ccc(N)nc3=O)[C@H](O)[C@@H]2O)(C(=O)O)OC1[C@H](O)[C@H](O)CNC(=O)c1ccc(N=[N+]=[N-])cc1O` (stereo not given in full), in series [1], the Ratio came to 13.8. Further, the Relative Vmax in series [2] worked out at 1.1.
Consider `CC(=O)NC1C(O)CC(OP(=O)(O)OC[C@H]2OC(n3ccc(N)nc3=O)[C@H](O)[C@@H]2O)(C(=O)O)OC1[C@H](O)[C@H](O)CNC(=O)c1ccc(C(=O)c2ccccc2)cc1` (stereo not given in full), for which the Ratio in series [1] amounted to 11.8. In addition, the Relative Vmax in series [2] came to 0.8.
In the same order, the values of `CC(=O)NC1C(O)CC(OP(=O)(O)OC[C@H]2OC(n3ccc(N)nc3=O)[C@H](O)[C@@H]2O)(C(=O)O)OC1[C@H](O)[C@H](O)CNC(=O)c1ccc(N=[N+]=[N-])cc1` (stereo not given in full) are 13.6 and 0.9.
For the molecule `NCC(=O)NC1C(O)CC(OP(=O)(O)OC[C@H]2OC(n3ccc(N)nc3=O)[C@H](O)[C@@H]2O)(C(=O)O)OC1[C@H](O)C(O)CO` (stereo not given in full), the Ratio in series [1] is 22.2. Further, the Relative Vmax in series [2] turned out to be 1.

B1: Beta-galactoside alpha-2,6-sialyltransferase 1 (Rattus norvegicus), P13721 (protein)
chain: T1 sequence (whole entry)
In the case of B1, the Km in series [3] was found to be 80 µM; in series [4], 66 µM; in series [5], 45 µM; in series [6] it was 68 µM; in series [7], 161 µM.
